Tested on: NLRP3 inflammasomes
Assay: Inhibitory activity against NLRP3 inflammasome in THP-1 cells (LPS/nigericin stimulation, IL-1β ELISA)
Type: cell-based
Conditions: PMA-differentiated THP-1 cells; LPS 500 ng/mL 3 h, compound 1 h, nigericin 10 μg/mL 30 min; human IL-1β in supernatant by Elisa; read-out: IC50 (nM), inhibitory activities against NLRP3 in THP-1 cells
Procedure: Test Samples: The compounds of the present invention prepared according to exemplary methods.
THP-1 is Immortalized Human Macrophage Cell Line
• Test instrument: microplate reader (made from PE)
• 1. […] Culture plate coating: 100 μL polylysine solution was added into a 96-well cell culture plate, and the reaction was carried out at 37° C. for 30 min. The solution was discarded, and PBS was washed twice for later use. • 3. […] The resulting mixture was uniformly mixed, and finally diluted by 1:1000 times, and the cells were placed in a carbon dioxide cell incubator at 37° C. and cultured for 1 h. • c. Nigericin was added to each well at a final concentration of 10 μg/mL, and the plate was placed in a carbon dioxide cell incubator at 37° C. and cultured for 30 min. • d. The media in wells were transferred to a new culture plate, and then the plate was centrifuged at 3000 rpm for 5 min. Then the supernatant was transferred to a new 96-well plate. • e. The collected cell culture supernatant samples were tested for the content of human IL-1β by using a commercial Elisa kit, as specified in the instructions.

| SMILES | IC50 |
| --- | --- |
| COc1ccc2c(-c3ccc(C)cc3O)nnc(N[C@@H]3CCCN(C)C3)c2c1 [Compound 16, (R)-2-(6-methoxy-4-((1-methylpiperidin-3-yl)amino)phthalazin-1-yl)-5-methylphenol] | 7 nM |
| Cc1ccc(-c2nnc(N[C@@H]3CCCN(C)C3)c3cc(C)ccc23)c(O)c1 [Compound 4, (R)-5-methyl-2-(6-methyl-4-((1-methylpiperidin-3-yl)amino)phthalazin-1-yl)phenol] | 9 nM |
| C[C@]1(O)C[C@@H](Nc2nnc(-c3ccc(C(F)(F)F)cc3O)c3c2CCCC3)C1 [Compound 32a, 2-(4-(((cis)-3-hydroxy-3-methylcyclobutyl)amino)-5,6,7,8-tetrahydrophthalazin-1-yl)-5-(trifluoromethyl)phenol] | 7 nM |
| Cc1ccc(-c2nnc(N[C@@H]3CCCN(C)C3)c3c2CCCC3)c(O)c1 [Compound 1a, (R)-5-methyl-2-(4-((1-methylpiperidin-3-yl)amino)-5,6,7,8-tetrahydrophthalazin-1-yl)phenol] | 7 nM |
| Cc1ccc(-c2nnc(N[C@@H]3CCCN(C)C3)c3ncccc23)c(O)c1 [Compound 38, (R)-5-methyl-2-(8-((1-methylpiperidin-3-yl)amino)pyrido[2,3-d]pyridazin-5-yl)phenol] | 12 nM |
| Cc1ccc(-c2nnc(N[C@@H]3CCCN(C)C3)c3cc(F)ccc23)c(O)c1 [Compound 8, (R)-2-(6-fluoro-4-((1-methylpiperidin-3-yl)amino)phthalazin-1-yl)-5-methylphenol] | 3 nM |
| C[C@]1(O)C[C@@H](Nc2nnc(-c3ccc(C#N)cc3O)c3ccccc23)C1 [Compound 116, 3-hydroxy-4-(4-(((cis)-3-hydroxy-3-methylcyclobutyl)amino)phthalazin-1-yl)benzonitrile] | 21 nM |
| CN1CCC[C@@H](Nc2nnc(-c3ccc(C4CC4)cc3O)c3ccncc23)C1 [Compound 95, (R)-5-cyclopropyl-2-(4-((1-methylpiperidin-3-yl)amino)pyrido[3,4-d]pyridazin-1-yl)phenol] | 1 nM |
| Cc1ccc2c(-c3ccc(C4CC4)cc3O)nnc(N[C@@H]3CCCN(C)C3)c2c1 [Compound 90, (R)-5-cyclopropyl-2-(6-methyl-4-((1-methylpiperidin-3-yl)amino)phthalazin-1-yl)phenol] | 7 nM |
| N#Cc1ccc(-c2nnc(N[C@@H]3CCCN(C4CC4)C3)c3c2CCCC3)c(O)c1 [Compound 21a, (R)-4-(4-((1-cyclopropylpiperidin-3-yl)amino)-5,6,7,8-tetrahydrophthalazin-1-yl)-3-hydroxybenzonitrile] | 14 nM |
| Cc1cc(C#N)ccc1-c1nnc(N[C@@H]2CCCN(C)C2)c2ccccc12 [Compound 118, (R)-3-methyl-4-(4-((1-methylpiperidin-3-yl)amino)phthalazin-1-yl)benzonitrile] | 23 nM |
| Cc1ccc(-c2nnc(N[C@@H]3CCCN(C)C3)c3cccc(F)c23)c(O)c1 [Compound 6, (R)-2-(8-fluoro-4-((1-methylpiperidin-3-yl)amino)phthalazin-1-yl)-5-methylphenol] | 11 nM |
| Cc1ccc(-c2nnc(N[C@@H]3CCCN(C)C3)c3ccsc23)c(O)c1 [Compound 48, (R)-5-methyl-2-(4-((1-methylpiperidin-3-yl)amino)thieno[2,3-d]pyridazin-7-yl)phenol] | 2 nM |
| Cc1ccc(-c2nnc(N[C@@H]3CCCN(C)C3)c3c(C)cccc23)c(O)c1 [Compound 5, (R)-5-methyl-2-(5-methyl-4-((1-methylpiperidin-3-yl)amino)phthalazin-1-yl)phenol] | 14 nM |
| CC(C)(O)CN1CCC[C@@H](Nc2nnc(-c3ccc(C#N)cc3O)c3ccccc23)C1 [Compound 126] | 5 nM |
| Cc1ccc(-c2nnc(N[C@@H]3CCCN(C)C3)c3cnccc23)c(O)c1 [Compound 50, (R)-5-methyl-2-(4-((1-methylpiperidin-3-yl)amino)pyrido[3,4-d]pyridazin-1-yl)phenol] | 1 nM |
| CN1CCC[C@@H](Nc2nnc(-c3ccc(Br)cc3O)c3ccccc23)C1 [Compound 73, (R)-5-bromo-2-(4-((1-methylpiperidin-3-yl)amino)phthalazin-1-yl)phenol] | 1 nM |
| Cc1ccc(-c2nnc(N[C@@H]3CCCN(C)C3)c3sccc23)c(O)c1 [Compound 70, (R)-5-methyl-2-(7-((1-methylpiperidin-3-yl)amino)thieno[2,3-d]pyridazin-4-yl)phenol] | 1 nM |
| N#Cc1ccc(-c2nnc(N[C@@H]3CCCN(CCO)C3)c3ccccc23)c(O)c1 [Compound 127, (R)-3-hydroxy-4-(4-((1-(2-hydroxyethyl)piperidin-3-yl)amino)phthalazin-1-yl)benzonitrile] | 4 nM |

| SMILES | IC50 |
| --- | --- |
| Cc1ccc2c(N[C@@H]3CCCN(C)C3)nnc(-c3ccc(C#N)cc3O)c2c1 [Compound 54, (R)-3-hydroxy-4-(7-methyl-4-((1-methylpiperidin-3-yl)amino)phthalazin-1-yl)benzonitrile] | 13 nM |
| Cc1ccc(-c2nnc(N[C@@H]3CCCN(C)C3)c3cc(C(F)(F)F)ccc23)c(O)c1 [Compound 24, (R)-5-methyl-2-(4-((1-methylpiperidin-3-yl)amino)-6-(trifluoromethyl)phthalazin-1-yl)phenol] | 14 nM |
| COc1ccc(-c2nnc(N[C@@H]3CCCN(C)C3)c3c2CCCC3)c(O)c1 [Compound 23a, (R)-5-methoxy-2-(4-((1-methylpiperidin-3-yl)amino)-5,6,7,8-tetrahydrophthalazin-1-yl)phenol] | 6 nM |
| Cc1ccc(-c2nnc(N[C@@H]3CCCN(C)C3)c3c2C2CCC3CC2)c(O)c1 [Compound 6a, (R)-5-methyl-2-(4-((1-methylpiperidin-3-yl)amino)-5,6,7,8-tetrahydro-5,8-ethanophthalazin-1-yl)phenol] | 1 nM |
| COc1ccc(-c2nnc(N[C@@H]3CCCN(C)C3)c3ccccc23)c(O)c1 [Compound 74, (R)-5-methoxy-2-(4-((1-methylpiperidin-3-yl)amino)phthalazin-1-yl)phenol] | 6 nM |
| N#Cc1ccc(-c2nnc(N[C@@H]3CCCOC3)c3ccccc23)c(O)c1 [Compound 112, (R)-3-hydroxy-4-(4-((tetrahydro-2H-pyran-3-yl)amino)phthalazin-1-yl)benzonitrile] | 16 nM |
| Cc1ccc(-c2nnc(N[C@@H]3CCCN(C)C3)c3ccc(C)cc23)c(O)c1 [Compound 3, (R)-5-methyl-2-(7-methyl-4-((1-methylpiperidin-3-yl)amino)phthalazin-1-yl)phenol] | 24 nM |
| C[C@]1(O)C[C@@H](Nc2nnc(-c3ccc(C(F)(F)F)cc3O)c3ccccc23)C1 [Compound 129, 2-(4-(((cis)-3-hydroxy-3-methylcyclobutyl)amino)phthalazin-1-yl)-5-(trifluoromethyl)phenol] | 4 nM |
| CC(C)N1CCC[C@@H](Nc2nnc(-c3ccc(C#N)cc3O)c3ccccc23)C1 [Compound 125, (R)-3-hydroxy-4-(4-((1-isopropylpiperidin-3-yl)amino)phthalazin-1-yl)benzonitrile] | 3 nM |
| CN1CCC[C@@H](Nc2nnc(-c3ccc(C4CC4)cc3O)c3ccc(C#N)cc23)C1 [Compound 89, (R)-1-(4-cyclopropyl-2-hydroxyphenyl)-4-((1-methylpiperidin-3-yl)amino)phthalazine-6-carbonitrile] | 7 nM |
| Cc1ccc(-c2nnc(N[C@@H]3CCCN(C)C3)c3c2CCCC3)c(O)c1F [Compound 29a, (R)-2-fluoro-3-methyl-6-(4-((1-methylpiperidin-3-yl)amino)-5,6,7,8-tetrahydrophthalazin-1-yl)phenol] | 1 nM |
| CN1CCC[C@@H](Nc2nnc(-c3ccc(C4CC4)cc3O)c3ccccc23)C1 [Compound 72, (R)-5-cyclopropyl-2-(4-((1-methylpiperidin-3-yl)amino)phthalazin-1-yl)phenol] | 1 nM |
| CN1C[C@H](F)C[C@@H](Nc2nnc(-c3ccc(C#N)cc3O)c3ccccc23)C1 [Compound 123, 4-(4-(((3R,5R)-5-fluoro-1-methylpiperidin-3-yl)amino)phthalazin-1-yl)-3-hydroxybenzonitrile] | 6 nM |
| Cc1ccc(-c2nnc(N[C@@H]3CCCN(C)C3)c3c(Br)cccc23)c(O)c1 [Compound 34, (R)-2-(5-bromo-4-((1-methylpiperidin-3-yl)amino)phthalazin-1-yl)-5-methylphenol] | 8 nM |
| Cc1ccc(-c2nnc(N[C@@H]3CCCN(C)C3)c3cc(C#N)ccc23)c(O)c1 [Compound 20, (R)-1-(2-hydroxy-4-methylphenyl)-4-((1-methylpiperidin-3-yl)amino)phthalazine-6-carbonitrile] | 12 nM |
| N#Cc1ccc(-c2nnc(N[C@@H]3CCCN(C4CC4)C3)c3ccccc23)c(O)c1 [Compound 111, (R)-4-(4-((1-cyclopropylpiperidin-3-yl)amino)phthalazin-1-yl)-3-hydroxybenzonitrile] | 4 nM |
| CN1CCC[C@@H](Nc2nnc(-c3ccc(Cl)cc3O)c3ccccc23)C1 [Compound 101, (R)-5-chloro-2-(4-((1-methylpiperidin-3-yl)amino)phthalazin-1-yl)phenol] | 5 nM |
| CN1CCC[C@@H](Nc2nnc(-c3ccc(C#N)cc3O)c3c2CCCC3)C1 [Compound 2a, (R)-3-hydroxy-4-(4-((1-methylpiperidin-3-yl)amino)-5,6,7,8-tetrahydrophthalazin-1-yl)benzonitrile] | 3 nM |
